Results reported in patent US20220257597A1, “Methods of Administering Elagolix” (AbbVie Inc., priority 2021, published 2022).
Changes are numbered by the printed parent chain.

Experiments:
[1] = biological target: T1, OATP1B1 (Homo sapiens, UniProt Q9Y6L6); assay: Substrate of OATP1B1; format: in vitro ADME
T1 sequence (Q9Y6L6 1-691): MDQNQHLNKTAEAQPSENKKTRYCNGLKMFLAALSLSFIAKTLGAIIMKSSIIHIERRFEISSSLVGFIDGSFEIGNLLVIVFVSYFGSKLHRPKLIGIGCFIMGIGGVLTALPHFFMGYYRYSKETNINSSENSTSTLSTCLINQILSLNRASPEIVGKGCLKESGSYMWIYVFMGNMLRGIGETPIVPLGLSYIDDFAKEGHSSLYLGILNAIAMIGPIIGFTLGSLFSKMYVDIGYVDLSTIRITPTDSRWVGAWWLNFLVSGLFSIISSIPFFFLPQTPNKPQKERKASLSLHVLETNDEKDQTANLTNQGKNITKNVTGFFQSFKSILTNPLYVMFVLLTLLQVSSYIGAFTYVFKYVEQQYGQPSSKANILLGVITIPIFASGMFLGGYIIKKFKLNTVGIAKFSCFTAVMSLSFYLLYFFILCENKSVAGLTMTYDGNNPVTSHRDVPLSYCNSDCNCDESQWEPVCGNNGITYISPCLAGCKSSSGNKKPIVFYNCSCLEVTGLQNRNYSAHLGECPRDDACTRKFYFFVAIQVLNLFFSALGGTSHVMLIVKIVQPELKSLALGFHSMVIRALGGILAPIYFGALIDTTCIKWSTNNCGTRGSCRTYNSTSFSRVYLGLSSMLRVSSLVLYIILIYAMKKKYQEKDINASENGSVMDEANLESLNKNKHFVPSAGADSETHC

[2] = biological target: P-gp (Homo sapiens, UniProt P08183); assay: Substrate of P-gp; format: in vitro ADME
Sequence of P-gp (P08183 whole entry): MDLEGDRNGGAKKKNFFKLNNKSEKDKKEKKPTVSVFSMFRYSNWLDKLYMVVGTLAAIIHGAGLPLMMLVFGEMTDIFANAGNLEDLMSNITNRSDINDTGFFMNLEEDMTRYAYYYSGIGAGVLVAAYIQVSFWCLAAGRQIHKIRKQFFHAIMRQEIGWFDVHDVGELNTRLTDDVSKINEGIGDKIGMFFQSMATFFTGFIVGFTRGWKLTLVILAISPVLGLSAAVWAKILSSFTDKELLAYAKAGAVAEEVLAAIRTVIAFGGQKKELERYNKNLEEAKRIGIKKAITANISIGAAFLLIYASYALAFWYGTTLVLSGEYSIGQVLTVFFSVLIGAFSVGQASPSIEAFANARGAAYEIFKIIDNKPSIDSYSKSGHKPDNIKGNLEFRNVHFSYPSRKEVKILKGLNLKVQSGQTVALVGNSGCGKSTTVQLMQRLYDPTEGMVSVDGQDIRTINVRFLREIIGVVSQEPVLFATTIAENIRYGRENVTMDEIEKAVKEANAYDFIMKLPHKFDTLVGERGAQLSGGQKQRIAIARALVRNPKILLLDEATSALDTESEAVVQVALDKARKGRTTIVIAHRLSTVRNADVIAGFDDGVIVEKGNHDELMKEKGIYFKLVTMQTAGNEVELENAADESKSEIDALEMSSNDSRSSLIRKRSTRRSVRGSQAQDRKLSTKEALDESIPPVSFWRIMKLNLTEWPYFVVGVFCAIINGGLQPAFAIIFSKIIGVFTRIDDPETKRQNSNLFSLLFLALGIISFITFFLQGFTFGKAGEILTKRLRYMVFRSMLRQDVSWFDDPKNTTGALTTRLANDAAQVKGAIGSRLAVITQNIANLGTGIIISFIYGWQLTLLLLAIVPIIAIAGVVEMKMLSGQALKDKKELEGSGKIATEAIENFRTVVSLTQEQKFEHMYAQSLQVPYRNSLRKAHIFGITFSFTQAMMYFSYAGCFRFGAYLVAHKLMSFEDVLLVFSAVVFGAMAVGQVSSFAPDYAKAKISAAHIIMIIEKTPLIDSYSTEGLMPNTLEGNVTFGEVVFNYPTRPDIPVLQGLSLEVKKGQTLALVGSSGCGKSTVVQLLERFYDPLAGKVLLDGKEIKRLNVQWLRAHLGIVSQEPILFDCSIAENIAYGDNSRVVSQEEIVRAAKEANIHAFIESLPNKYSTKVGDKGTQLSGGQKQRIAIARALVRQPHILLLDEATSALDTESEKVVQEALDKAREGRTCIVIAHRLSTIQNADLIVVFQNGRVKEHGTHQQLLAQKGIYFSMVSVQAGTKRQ

[3] = tested on: CYP3A4; assay: In vitro studies: CYP3A induction; format: in vitro ADME
[4] = biological target: T2, rat gonadotropin-releasing hormone (GnRH) receptor (Rattus norvegicus, UniProt P30969); assay: Binding to rat versus human GnRH receptor; conditions: rat vs human GnRH receptor
T2 sequence (P30969 1-327): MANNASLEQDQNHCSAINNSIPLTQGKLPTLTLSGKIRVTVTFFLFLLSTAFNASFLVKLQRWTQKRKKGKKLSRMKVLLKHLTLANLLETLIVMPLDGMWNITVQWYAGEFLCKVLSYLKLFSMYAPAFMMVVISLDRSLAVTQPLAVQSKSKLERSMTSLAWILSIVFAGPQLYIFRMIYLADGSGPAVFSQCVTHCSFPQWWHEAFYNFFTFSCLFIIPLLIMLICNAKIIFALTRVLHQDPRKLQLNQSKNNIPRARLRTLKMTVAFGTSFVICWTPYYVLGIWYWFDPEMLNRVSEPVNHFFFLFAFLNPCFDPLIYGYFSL

[5] = biological target: T3, OATP1B1 transporter protein (Homo sapiens, UniProt Q9Y6L6, V174A); assay: Pharmacogenomics: elagolix plasma concentrations by SLCO1B1 521 genotype; format: in vivo; conditions: women with two reduced function alleles
T3 construct: Hepatic uptake of elagolix involves the OATP1B1 transporter protein; from tissue; host or cells: liver of patients (in vivo)
T3 sequence (Q9Y6L6 1-691 V174A): T1 sequence (Q9Y6L6 1-691) with V174A
Description: Hepatic uptake of elagolix involves the OATP1B1 transporter protein. Higher plasma concentrations of elagolix have been observed in patients who have two reduced function alleles of the gene that encodes OATP1B1 (SLCO1B1 521T>C) (these patients are likely to have reduced hepatic uptake of elagolix; and thus, higher plasma elagolix concentrations). The frequency of this SLCO1B1 521 C/C genotype is generally less than 5% in most racial/ethnic groups. Women with this genotype are expected to have approximately 2-fold higher elagolix mean concentrations compared to women with normal transporter function (i.e., SLCO1B1 521T/T genotype). Adverse effects of elagolix have not been fully evaluated in subjects who have two reduced function alleles of the gene that encodes OATP1B1 (SLCO1B1 521T>C).

[6] = Elagolix apparent terminal phase elimination half-life; conditions: human, in vivo; read-out: apparent terminal phase elimination half-life (t1/2)
[7] = Pre- and postnatal development study in rats; format: in vivo, rat; conditions: for maternal plasma concentration relative to maximal elagolix concentration (Cmax) in humans at the MRHD: lactation day 21
Description: In a pre- and postnatal development study in rats, elagolix was given in the diet to achieve doses of 0, 100 and 300 mg/kg/day (25 per dose group) from gestation day 6 to lactation day 20. […] Pup survival was decreased from birth to postnatal day 4. […] Smaller body size and effect on startle response were associated with lower pup weights at 300 mg/kg/day. Post-weaning growth, development and behavioral endpoints were unaffected.

[8] = biological target: CYP2C19 (Homo sapiens, UniProt P33261); assay: In vitro studies: CYP2C19 inhibition; format: in vitro ADME
Sequence of CYP2C19 (P33261 whole entry): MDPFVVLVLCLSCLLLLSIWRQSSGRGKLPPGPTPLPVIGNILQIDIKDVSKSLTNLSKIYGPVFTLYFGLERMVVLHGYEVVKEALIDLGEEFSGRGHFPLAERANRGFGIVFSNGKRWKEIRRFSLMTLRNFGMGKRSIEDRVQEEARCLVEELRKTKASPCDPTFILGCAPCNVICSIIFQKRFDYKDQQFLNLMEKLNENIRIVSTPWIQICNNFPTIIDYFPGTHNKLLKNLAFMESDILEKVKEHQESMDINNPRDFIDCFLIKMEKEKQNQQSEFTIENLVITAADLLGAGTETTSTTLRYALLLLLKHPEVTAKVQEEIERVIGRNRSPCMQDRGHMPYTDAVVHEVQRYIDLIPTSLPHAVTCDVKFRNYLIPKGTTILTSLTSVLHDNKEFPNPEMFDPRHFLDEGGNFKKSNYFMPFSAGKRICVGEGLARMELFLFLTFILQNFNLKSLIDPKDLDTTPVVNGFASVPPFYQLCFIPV

SMILES: COc1cccc(-c2c(C)n(Cc3c(F)cccc3C(F)(F)F)c(=O)n(C[C@H](NCCCC(=O)O)c3ccccc3)c2=O)c1F [elagolix, 4-((R)-2-[5-(2-fluoro-3-methoxy-phenyl)-3-(2-fluoro-6-trifluoromethyl-benzyl)-4-methyl-2,6-dioxo-3,6-dihydro-2H-pyrimidin-1-yl]-1-phenyl-ethylamino)-butyric acid]
- substrate of OATP1B1 [1]: substrate
- substrate of P-gp [2]: substrate
- inducer of CYP3A4 / cytochrome P450 (CYP) 3A [3]: weak to moderate inducer
- binding to the rat GnRH receptor, fold less than to the human GnRH receptor [4]: ~1000 fold
- elagolix mean concentrations, SLCO1B1 521 C/C genotype compared to SLCO1B1 521T/T genotype [5]: approximately 2 fold
- half-life [6]: 4 to 6 h
- post-weaning growth, development and behavioral endpoints [7]: unaffected
- maternal plasma concentration relative to maximal elagolix concentration (Cmax) in humans at the MRHD ([7]; 100 mg/kg/day): 0.04 fold
- litter findings at the highest dose ([7]; 300 mg/kg/day): two dams had total litter loss, and one failed to deliver
- maternal plasma concentration relative to maximal elagolix concentration (Cmax) in humans at the MRHD ([7]; 300 mg/kg/day): 0.1 fold
- pup birth weights and body weight gains ([7]; 300 mg/kg/day, pre-weaning period): lower birth weights and lower body weight gains
- pup survival from birth to postnatal day 4 ([7]; highest dose): decreased
- inhibitor of CYP2C19 [8]: weak inhibitor
